Test results as given in the NIST ThermoML archive (doi:10.1021/acs.jced.7b00083).
± gives the expanded uncertainty stated by the source.

Experiment: molar enthalpy of vaporization or sublimation
Conditions: 298.15 K; Crystal; Static calorimetry

SMILES: S=C1NCCN1 [imidazolidine-2-thione]
- molar enthalpy: 25.7 ± 0.359 kcal/mol
